This data set in a line: gradient 5% acetonitrile 3 min, to 50% in 2 min, to 85% in 15 min, held 3 min, 100 µL/min. The note with it: column: Zorbax Extend-C18 2.1 x 50 mm; eluents: water / acetonitrile, 0.1% formic acid. In a few lines:
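The mobile phases were water and acetonitrile, each with 0.1% formic acid, pumped at 100 μL/min through a Zorbax Extend-C18 column (2.1 × 50 mm, 1.8 μm). Pure standards were injected as mixtures of ~100 molecules and detected by a quadrupole time-of-flight mass spectrometer in positive and negative ionization mode. Retention time came from computationally picked adduct peaks, each inspected by hand.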
`CCc1ccc(NC(=O)Cn2nc3n(c2=O)CCCC3)cc1`: the RP-LC retention time was determined as 669 s.

Take `CC1OC1c1ccc(-c2ccc(C3OC3C)cc2)cc1` (centres undefined): the RP-LC retention time stood at 1140 s.

As for `COc1ccc(-n2nc3c(N4CCCC(C(=O)NCc5ccccn5)C4)nnc(C)c3c2C)cc1` (centres undefined), the RP-LC retention time is 591 s.

With `CC(C)n1c(=O)sc2cc(S(=O)(=O)N3CCC(C(=O)NCC4CCCO4)CC3)ccc21` (centres undefined), the RP-LC retention time stood at 762 s.

The compound `CC(C)c1ccc(OCC(=O)Nc2nnc(C3CC(=O)N(c4ccc(F)cc4)C3)o2)cc1` (centres undefined) came in with an RP-LC retention time of 904 s.

As for `CC(C)Cn1nc2n(c1=O)CCN(S(=O)(=O)c1cccc3cccnc13)CC2`, the RP-LC retention time came to 754 s.

`CC(C)Cc1noc(C2(F)CCN(S(=O)(=O)c3ccc(F)cc3F)CC2)n1` came in with an RP-LC retention time of 1150 s.

The compound `COc1ccc(-c2cc3nc(C)cc(N4CCN(c5nc(C)cc(C)n5)CC4)n3n2)cc1OC` gave an RP-LC retention time of 735 s.

As to `O=C(C1CC(=O)N(c2n[nH]c3cccc(F)c23)C1)N1CCC(Cc2ccccc2)CC1` (centres undefined), the RP-LC retention time turned out to be 882 s.

`COc1ccc(CNS(=O)(=O)c2cc3c(s2)CCN(C(=O)C2CC2)C3)cc1` displayed an RP-LC retention time of 812 s.

In the case of `Cc1c(CC(=O)N2CCC(C(N)=O)CC2)c(=O)oc2cc3occ(C(C)(C)C)c3cc12`, the RP-LC retention time came to 785 s.

On to `CCn1ccc2c(cc(C(=O)Nc3ccc(Cl)cc3)n2C)c1=O`, for which the RP-LC retention time came out at 819 s.

`CCOC(=O)c1c(C)[nH]c(C(=O)N2CCC(CC(=O)N3CCOCC3)CC2)c1C` came in with an RP-LC retention time of 675 s.

Turning to `Cn1cccc1C(=O)C(=O)Nc1ccc(Cl)c(C(F)(F)F)c1`, the RP-LC retention time was found to be 1130 s.

Turning to `O=C(NCCN1CCCC1)C1CCN(c2nc(-c3ccc(Cl)cc3)no2)CC1`, the RP-LC retention time is 603 s.

Compound `O=C(C1CCCN(c2ncnc3c2nc2n3CCCCC2)C1)N1CCCc2ccccc21` (centres undefined) came in with an RP-LC retention time of 888 s.

Take `O=C(Cn1ncc2c(N3CCN(c4ccccn4)CC3)ncnc21)Nc1ccccc1Cl`: the RP-LC retention time came to 564 s.

`Cc1ccc(Cl)cc1NC(=O)N(C)CCO` came in with an RP-LC retention time of 737 s.

In turn, `COCCN(CCOC)c1nc(S(=O)(=O)c2ccc(C)cc2)c(Cl)s1` gave an RP-LC retention time of 939 s.

For the compound `CNc1ncnc2c1cnn2-c1ccc(F)cc1`, the RP-LC retention time is 657 s.

In turn, `CCCN1C(=O)COc2cc(-c3noc(C(=O)NCCc4ccc(S(N)(=O)=O)cc4)n3)ccc21` returned an RP-LC retention time of 771 s.

As for `Cc1noc(C)c1CC(=O)N1CC(n2cc(COc3ccc(F)cc3)nn2)C1`, the RP-LC retention time was determined as 721 s.

The compound `CCOC(=O)CNC(=O)NCc1cccn1Cc1ccc(Cl)cc1` had an RP-LC retention time of 843 s.

The compound `Cc1cc(C)cc(C(=O)N2CCC(COc3ccc(C(=O)NC4CC4)cc3)CC2)c1` showed an RP-LC retention time of 887 s.

`Cc1cccc(NC(=O)Cn2cc(C(=O)N3CCCC3)c(=O)c3ccc(C)nc32)c1`: the RP-LC retention time turned out to be 698 s.

As to `O=C(CCc1c(-c2ccc(F)cc2)nc2ccccn12)Nc1cc(F)ccc1F`, the RP-LC retention time was 697 s.

Take `Cc1cc(C)cc(N2CCC(NC(=O)Nc3ccc(F)cc3F)C2=O)c1` (centres undefined): the RP-LC retention time is 904 s.

The compound `CCc1nnc(-c2ccc3ccn(CC(=O)NCc4ccc(F)cc4)c3c2)o1` registered an RP-LC retention time of 801 s.

The compound `O=C(C1CCCO1)N1CCN(c2nc(CN3CCCCC3)cs2)CC1` (centres undefined) yielded an RP-LC retention time of 579 s.

With `CCCNC(=O)Cn1c(CNC(C)=O)nc2ccccc21`, the RP-LC retention time stood at 575 s.

`COc1ccc(NC(=O)c2cc(C)n3nccc3n2)c(C)c1` had an RP-LC retention time of 886 s.

In turn, `O=C(Cc1ccccc1F)NC1CCN(c2cc(-c3ccccc3)[nH]n2)C1` (centres undefined) yielded an RP-LC retention time of 688 s.

As for `COc1ccccc1N1CCN(c2cc(SCC(=O)Nc3ccc(F)cc3C)ncn2)CC1`, the RP-LC retention time is 959 s.

As to `Cc1nc(-c2ccc3c(c2)n(CC(=O)NC(C)(C)C)c(=O)n3C(C)C)no1`, the RP-LC retention time was determined as 810 s.

`CC(=O)Nc1ccc2nc(NC(=O)c3cccc(C(F)(F)F)c3)sc2c1`: the RP-LC retention time was 784 s.

Take `c1ccc(CNc2nc(C3CC3)nc3c2CCC3)nc1`: the RP-LC retention time worked out at 540 s.

As for `CCc1ccc(CNC(=O)Cn2ccc3ccc(N4CCCCC4)nc32)cc1`, the RP-LC retention time is 999 s.

`Cc1ccccc1CNc1nnc(-c2nc(C3CC3)no2)c2ccccc12` came in with an RP-LC retention time of 936 s.

`O=C(Cn1ncn2nc(-c3cccs3)cc2c1=O)N1CCN(c2ccccn2)CC1` came in with an RP-LC retention time of 622 s.

`O=S(=O)(c1ccccc1-c1nc(-c2ccccc2)no1)N1CCN(C2CCCCC2)CC1` returned an RP-LC retention time of 755 s.

Regarding `O=C(C1=NNc2ccccc2S1(=O)=O)N1CCOCC1`, the RP-LC retention time was found to be 618 s.

For the compound `Cc1cccc(CN2CCN(C3CCN(C(=O)Nc4ccc5c(c4)OCO5)CC3)C2=O)c1`, the RP-LC retention time turned out to be 836 s.

`CCCNC(=O)C1CCCN(c2nc(C)nc3onc(CC)c23)C1` (centres undefined) showed an RP-LC retention time of 743 s.

For the compound `CC1CCC(NC(=O)C2CCN(S(=O)(=O)c3cc(C(=O)N(C)C)cs3)CC2)CC1` (centres undefined), the RP-LC retention time worked out at 797 s.

Turning to `O=C(NCCc1c[nH]c2ccccc12)C1CCN(c2nnc(N3CCCCC3=O)s2)CC1`, the RP-LC retention time was determined as 709 s.

As to `O=C(c1ccc(Br)cc1)N1CCc2nc(-c3ccccc3)ncc2C1`, the RP-LC retention time came out at 1000 s.

In the case of `COc1ccc(-c2csc(NC(=O)c3ccc(Cl)c(Cl)c3)n2)cc1`, the RP-LC retention time was 1140 s.

For the compound `CC(C)NC(=O)CN1c2ccc(F)cc2-c2ccccc2S1(=O)=O`, the RP-LC retention time was determined as 831 s.

On to `CN1c2ccccc2C(=O)NC12CCN(C(=O)c1ccccc1)CC2`, for which the RP-LC retention time came out at 700 s.

In the case of `CCOC(=O)C1=C(CN2CCc3ccccc3C2)NC(=O)NC1c1cccs1` (centres undefined), the RP-LC retention time turned out to be 655 s.

On to `CCS(=O)(=O)N(C1CC1)C1CCOC2(CCN(C(=O)C3CC3)CC2)C1` (centres undefined), for which the RP-LC retention time came to 710 s.

Compound `CCn1c(=O)c(N2CCC(C(=O)NCCc3c[nH]c4ccc(Cl)cc34)CC2)nc2cccnc21` had an RP-LC retention time of 993 s.

As to `COc1cccc(-c2nnc(Cc3nc(-c4cccc(OC)c4OC)no3)o2)c1`, the RP-LC retention time came out at 923 s.

`CCN(CC)S(=O)(=O)c1ccc2c(c1)N(CC(=O)NCc1cccnc1)C(=O)C1CCCCN21` (centres undefined) displayed an RP-LC retention time of 653 s.

In turn, `COc1ccc(NC(=O)c2cnc3c(c2)c(=O)n(C)c(=O)n3-c2ccccc2)cc1F` yielded an RP-LC retention time of 858 s.

Take `Cc1ccc(-c2cn3nc(N4CCCC(C(=O)N5CCOCC5)C4)sc3n2)cc1` (centres undefined): the RP-LC retention time turned out to be 800 s.

As to `CCN1C(=O)C2(CCN(C(=O)CC(C)C)CC2)c2ccccc21`, the RP-LC retention time was 818 s.

For `O=C(Cn1cc(-c2ccccc2)c2ncnc(N3CCOCC3)c21)NCC1CCCO1` (centres undefined), the RP-LC retention time turned out to be 644 s.

Regarding `Cc1cc(C)cc(-c2nnc(Cc3nc(-c4ccc(F)cc4)no3)o2)c1`, the RP-LC retention time came out at 1120 s.

Source of the values: the METLIN SMRT retention time set (Domingo-Almenara et al. 2019).
